What all share (format): biochemical
For one experiment, the target named is T1, Tek (Homo sapiens, UniProt Q02763).
T1 construct: amino acids 773-1124 of the cytoplasmic kinase domain of human Tek, N-terminally fused to GST; made in house; host or cells: Sf9 insect cells (baculovirus)
As to the kind of experiment: Recombinant GST-Tek (Tie-2) tyrosine kinase assay (33P into poly(Glu,Tyr)). The following applies: Examples 1 to 169. The method in brief:
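GST-fused human Tek kinase domain (aa 773-1124), baculovirus-expressed, 150 ng per reaction; 10 μg/mL poly(Glu,Tyr) 4:1, 4.0 μM [γ-33P]ATP, 3 mM MnCl2/3 mM MgCl2, pH 7.5, 30 min at ambient temperature. 33P uptake read on PVDF filters; IC50 by linear regression from four concentrations in duplicate.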

The next experiment has as its target T2, FGFR3 (K650E) (Homo sapiens, UniProt P22607, K650E).
T2 construct: amino acids 411-806 of the cytoplasmic domain of human FGFR-3, N-terminally fused to GST; made in house; host or cells: Sf9 insect cells (baculovirus)
As to the kind of experiment: Recombinant GST-FGFR-3-K650E tyrosine kinase assay (33P into poly(Glu,Tyr)). To be noted: 10 μM; Examples 1 to 169; read-out: FGFR3 (K650E) inhibition at 10 μM.

The target of another experiment is T3, KDR (Homo sapiens, UniProt P35968).
T3 construct: expressed in transfected cells; host or cells: CHO cells
T3 sequence (P35968 20-1356): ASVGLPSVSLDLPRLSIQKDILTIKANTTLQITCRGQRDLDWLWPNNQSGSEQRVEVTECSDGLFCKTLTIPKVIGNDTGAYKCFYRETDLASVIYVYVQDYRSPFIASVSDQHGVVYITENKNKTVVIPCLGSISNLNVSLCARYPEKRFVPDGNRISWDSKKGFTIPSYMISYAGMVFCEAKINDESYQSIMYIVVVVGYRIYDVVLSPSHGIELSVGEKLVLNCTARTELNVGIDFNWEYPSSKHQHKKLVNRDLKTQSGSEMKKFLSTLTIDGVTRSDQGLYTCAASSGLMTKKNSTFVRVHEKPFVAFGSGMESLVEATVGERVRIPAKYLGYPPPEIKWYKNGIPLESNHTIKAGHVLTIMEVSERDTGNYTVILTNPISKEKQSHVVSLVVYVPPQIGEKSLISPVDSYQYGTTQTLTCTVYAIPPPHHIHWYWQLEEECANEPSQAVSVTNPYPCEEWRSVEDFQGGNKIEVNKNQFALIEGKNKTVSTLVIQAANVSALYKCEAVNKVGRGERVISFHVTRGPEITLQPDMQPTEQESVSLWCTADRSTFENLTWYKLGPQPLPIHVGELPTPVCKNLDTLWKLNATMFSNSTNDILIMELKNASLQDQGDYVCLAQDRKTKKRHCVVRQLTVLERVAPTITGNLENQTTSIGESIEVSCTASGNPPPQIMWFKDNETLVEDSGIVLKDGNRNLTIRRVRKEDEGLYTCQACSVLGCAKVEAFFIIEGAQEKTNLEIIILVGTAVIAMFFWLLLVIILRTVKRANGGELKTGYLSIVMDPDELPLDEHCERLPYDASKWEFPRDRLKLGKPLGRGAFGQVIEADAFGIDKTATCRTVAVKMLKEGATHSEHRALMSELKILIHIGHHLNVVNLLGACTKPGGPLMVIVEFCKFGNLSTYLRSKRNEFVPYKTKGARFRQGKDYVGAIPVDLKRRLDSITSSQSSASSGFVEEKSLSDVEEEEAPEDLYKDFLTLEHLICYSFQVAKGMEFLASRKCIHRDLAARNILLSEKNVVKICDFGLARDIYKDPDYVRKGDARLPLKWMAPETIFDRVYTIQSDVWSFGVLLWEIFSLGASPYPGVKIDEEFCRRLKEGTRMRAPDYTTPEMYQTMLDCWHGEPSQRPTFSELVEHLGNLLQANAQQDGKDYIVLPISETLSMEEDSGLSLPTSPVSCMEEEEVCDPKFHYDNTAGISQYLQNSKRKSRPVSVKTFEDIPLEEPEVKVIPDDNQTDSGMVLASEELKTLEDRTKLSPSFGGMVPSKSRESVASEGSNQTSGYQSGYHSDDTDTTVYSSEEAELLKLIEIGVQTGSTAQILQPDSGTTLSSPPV
As to the kind of experiment: Inhibitory activity against KDR (VEGF-R2), in vitro data of Examples 170 and 207. The following applies: 10 μM; Examples 1 to 169; read-out: KDR inhibition at 10 μM. The method in brief: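 KDR tyrosine phosphorylation detected by luminescence after overnight 4° C capture of 20 μg lysate protein with PY20:AP antibody. Lysates came from cells given compound for 2 h at 37° C, then final 20 ng/ml VEGF for 5 min; compound-free medium as control.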

Consider 26 compounds from patent US8552002B2 (Novartis AG, priority 2004, dated 2013).

T2 sequence (P22607 411-806 K650E): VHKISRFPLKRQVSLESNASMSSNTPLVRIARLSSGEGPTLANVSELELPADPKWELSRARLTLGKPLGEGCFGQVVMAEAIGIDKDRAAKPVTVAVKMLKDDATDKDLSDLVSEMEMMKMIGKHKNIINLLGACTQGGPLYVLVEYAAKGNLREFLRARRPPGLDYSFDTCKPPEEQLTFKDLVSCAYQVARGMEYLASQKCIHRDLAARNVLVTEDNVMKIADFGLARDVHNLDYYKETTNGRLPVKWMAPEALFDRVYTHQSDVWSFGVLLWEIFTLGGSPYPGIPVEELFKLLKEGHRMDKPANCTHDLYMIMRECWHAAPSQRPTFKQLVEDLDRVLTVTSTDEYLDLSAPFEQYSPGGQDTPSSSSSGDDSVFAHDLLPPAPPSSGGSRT
T1 sequence (Q02763 773-1124): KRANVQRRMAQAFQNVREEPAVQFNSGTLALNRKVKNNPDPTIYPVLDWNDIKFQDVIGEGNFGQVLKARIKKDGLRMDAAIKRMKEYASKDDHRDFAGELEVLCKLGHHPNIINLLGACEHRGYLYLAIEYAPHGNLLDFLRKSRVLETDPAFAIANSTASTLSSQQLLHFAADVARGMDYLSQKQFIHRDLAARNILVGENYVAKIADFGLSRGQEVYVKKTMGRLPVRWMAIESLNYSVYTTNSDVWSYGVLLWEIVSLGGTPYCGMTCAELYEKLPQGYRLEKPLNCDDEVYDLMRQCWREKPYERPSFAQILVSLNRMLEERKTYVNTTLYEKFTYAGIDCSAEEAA

On to `O=C(Nc1cc(Nc2ccc(OCCCN3CCOCC3)cc2)ncn1)Nc1c(Cl)cccc1Cl` [Example 98, 1-(2,6-Dichloro-phenyl)-3-{6-[4-(3-morpholin-4-yl-propoxy)-phenylamino]-pyrimidin-4-yl}-urea], for which the inhibition at 10 µM lay within 12 to 100% at Tek, 27 to 100% on FGFR3 (K650E) and 67 to 100% on KDR.

In the case of `O=C(Nc1cc(Nc2ccc(OCCCN3CCOCC3)cc2)ncn1)Nc1ccccc1Br` [Example 99, 1-(2-Bromo-phenyl)-3-{6-[4-(3-morpholin-4-yl-propoxy)-phenylamino]-pyrimidin-4-yl}-urea], the inhibition at 10 µM on Tek lay within 12 to 100%; on FGFR3 (K650E), 27 to 100%; on KDR, 67 to 100%.

Regarding `CCN(CC)CCOc1ccc(Nc2cc(NC(=O)Nc3c(Cl)cccc3Cl)ncn2)cc1` [Example 100, 1-(2,6-Dichloro-Phenyl)-3-{6-[4-(2-diethylamino-ethoxy)-phenylamino]-pyrimidin-4-yl}-urea], the inhibition at 10 µM was 12 to 100% on Tek, 27 to 100% on FGFR3 (K650E) and 67 to 100% at KDR.

For `CCN(CC)CCOc1ccc(Nc2cc(NC(=O)Nc3ccccc3Br)ncn2)cc1` [Example 101, 1-(2-Bromo-phenyl)-3-{6-[4-(2-diethylamino-ethoxy)-phenylamino]-pyrimidin-4-yl}-urea], the inhibition at 10 µM on Tek lay within 12 to 100%; on FGFR3 (K650E) it was 27 to 100%; on KDR, 67 to 100%.

As for `CCN(CC)CCCOc1ccc(Nc2cc(NC(=O)Nc3ccccc3Cl)ncn2)cc1` [Example 102, 1-(2-Chloro-phenyl)-3-{6-[4-(3-diethylamino-propoxy)-phenylamino]-pyrimidin-4-yl}-urea], the inhibition at 10 µM at Tek was in the range of 12 to 100%; on FGFR3 (K650E), 27 to 100%; at KDR, 67 to 100%.

For `CCN(CC)CCCOc1ccc(Nc2cc(NC(=O)Nc3c(Cl)cccc3Cl)ncn2)cc1` [Example 103, 1-(2,6-Dichloro-phenyl)-3-{6-[4-(3-diethylamino-propoxy)-phenylamino]-pyrimidin-4-yl}-urea], the inhibition at 10 µM lay within 12 to 100% on Tek, 27 to 100% at FGFR3 (K650E) and 67 to 100% at KDR.

On to `CCN(CC)CCCOc1ccc(Nc2cc(NC(=O)Nc3ccccc3Br)ncn2)cc1` [Example 104, 1-(2-Bromo-phenyl)-3-{6-[4-(3-diethylamino-propoxy)-phenylamino]-pyrimidin-4-yl}-urea], for which the results for the inhibition at 10 µM on Tek, on FGFR3 (K650E) and at KDR were 12 to 100%, 27 to 100% and 67 to 100%, respectively.

On to `CCN(CC)c1ccc(Nc2cc(NC(=O)Nc3c(F)cccc3F)ncn2)cc1` [Example 105, 1-[6-(4-Diethylamino-phenylamino)-pyrimidin-4-yl]-3-(2,6-difluoro-phenyl)-urea], for which the results for the inhibition at 10 µM at Tek, on FGFR3 (K650E) and on KDR were 12 to 100%, 27 to 100% and 67 to 100%, respectively.

As for `CN(C)c1cccc(Nc2cc(NC(=O)Nc3c(F)cccc3F)ncn2)c1` [Example 106, 1-(2,6-Difluoro-phenyl)-3-[6-(3-dimethylamino-phenylamino)-pyrimidin-4-yl]-urea], the inhibition at 10 µM on Tek lay within 12 to 100%; on FGFR3 (K650E), 27 to 100%; at KDR, 67 to 100%.

In the case of `CCN(CC)c1ccc(Nc2cc(NC(=O)Nc3c(Cl)cccc3Cl)ncn2)cc1` [Example 107, 1-(2,6-Dichloro-phenyl)-3-[6-(4-diethylamino-phenylamino)-pyrimidin-4-yl]-urea], the values for the inhibition at 10 µM at Tek, on FGFR3 (K650E) and at KDR were 12 to 100%, 27 to 100% and 67 to 100%, respectively.

Take `O=C(Nc1cc(Nc2ccc(N3CCOCC3)cc2)ncn1)Nc1c(Cl)cccc1Cl` [Example 108, 1-(2,6-Dichloro-Phenyl)-3-[6-(4-morpholin-4-yl-phenylamino)-pyrimidin-4-yl]-urea]: the inhibition at 10 µM lay in the range of 12 to 100% on Tek, 27 to 100% on FGFR3 (K650E) and 67 to 100% on KDR.

As for `O=C(Nc1cc(Nc2ccc(N3CCOCC3)cc2)ncn1)Nc1c(F)cccc1F` [Example 109, 1-(2,6-Difluoro-phenyl)-3-[6-(4-morpholin-4-yl-phenylamino)-pyrimidin-4-yl]-urea], the inhibition at 10 µM lay in the range of 12 to 100% on Tek, 27 to 100% on FGFR3 (K650E) and 67 to 100% at KDR.

In the case of `CCN(CC)c1ccc(Nc2cc(N(C)C(=O)Nc3c(Cl)cccc3Cl)ncn2)cc1` [Example 110, 3-(2,6-Dichloro-phenyl)-1-[6-(4-diethylamino-phenylamino)-pyrimidin-4-yl]-1-methyl-urea], the inhibition at 10 µM at Tek fell in the range of 12 to 100%; on FGFR3 (K650E) it was 27 to 100%; on KDR, 67 to 100%.

Take `CN(C(=O)Nc1c(Cl)cccc1Cl)c1cc(Nc2ccc(C(C)(C)O)cc2)ncn1` [Example 111, 3-(2,6-Dichloro-Phenyl)-1-{6-[4-(1-hydroxy-1-methyl-ethyl)-phenylamino]-pyrimidin-4-yl}-1-methyl-urea]: the inhibition at 10 µM at Tek was 12 to 100%; on FGFR3 (K650E) it was 27 to 100%; at KDR it was 67 to 100%.

`COc1ccc(Nc2cc(NC(=O)Nc3c(Cl)cccc3Cl)ncn2)cn1` [Example 112, 1-(2,6-Dichloro-phenyl)-3-[6-(6-methoxy-pyridin-3-ylamino)-pyrimidin-4-yl]-urea]: the inhibition at 10 µM lay within 12 to 100% on Tek, 27 to 100% at FGFR3 (K650E) and 67 to 100% on KDR.

In the case of `CN(C(=O)Nc1c(Cl)cccc1Cl)c1cc(Nc2cccc(C(F)(F)F)c2)ncn1` [Example 113, 3-(2,6-Dichloro-phenyl)-1-methyl-1-[6-(3-trifluoromethyl-phenylamino)-pyrimidin-4-yl]-urea], the inhibition at 10 µM at Tek is 12 to 100%; on FGFR3 (K650E) it was 27 to 100%; on KDR, 67 to 100%.

Consider `CN(C(=O)Nc1c(Cl)cccc1Cl)c1cc(Nc2cccc(C#N)c2)ncn1` [Example 114, 1-[6-(3-Cyano-phenylamino)-pyrimidin-4-yl]-3-(2,6-dichloro-phenyl)-1-methyl-urea], for which the inhibition at 10 µM on Tek lay within 12 to 100%; at FGFR3 (K650E) it was 27 to 100%; at KDR, 67 to 100%.

For `O=C(Nc1cc(Nc2ccc(F)cc2)ncn1)Nc1c(Cl)cccc1Cl` [Example 115, 1-(2,6-Dichloro-phenyl)-3-[6-(4-fluoro-phenylamino)-pyrimidin-4-yl]-urea], the results for the inhibition at 10 µM on Tek, at FGFR3 (K650E) and at KDR were 12 to 100%, 27 to 100% and 67 to 100%, respectively.

Take `COc1ccc(NC(=O)N(C)c2cc(Nc3ccc(F)cc3)ncn2)cc1` [Example 116, 1-[6-(4-Fluoro-Phenylamino)-pyrimidin-4-yl]-3-(4-methoxy-phenyl)-1-methyl-urea]: the inhibition at 10 µM on Tek lay in the range of 12 to 100%; on FGFR3 (K650E), 27 to 100%; on KDR, 67 to 100%.

Take `CN(C(=O)Nc1c(Cl)cccc1Cl)c1cc(Nc2ccc(N3CCOCC3)cc2)ncn1` [Example 117, 3-(2,6-Dichloro-phenyl)-1-methyl-1-[6-(4-morpholin-4-yl-phenylamino)-pyrimidin-4-yl]-urea]: the inhibition at 10 µM on Tek is 12 to 100%; at FGFR3 (K650E), 27 to 100%; at KDR, 67 to 100%.

As for `CN(C(=O)Nc1c(Cl)cccc1Cl)c1cc(Nc2ccc(F)cc2F)ncn1` [Example 118, 3-(2,6-Dichloro-phenyl)-1-[6-(2,4-difluoro-phenylamino)-pyrimidin-4-yl]-1-methyl-urea], the inhibition at 10 µM on Tek lay in the range of 12 to 100%; on FGFR3 (K650E), 27 to 100%; at KDR, 67 to 100%.

For `CN(C)c1cccc(Nc2cc(NC(=O)Nc3c(Cl)cccc3Cl)ncn2)c1` [Example 119, 1-(2,6-Dichloro-phenyl)-3-[6-(3-dimethylamino-phenylamino)-pyrimidin-4-yl]-urea], the results for the inhibition at 10 µM at Tek, on FGFR3 (K650E) and at KDR were 12 to 100%, 27 to 100% and 67 to 100%, respectively.

For the compound `CN(C)c1cccc(Nc2cc(N(C)C(=O)Nc3c(Cl)cccc3Cl)ncn2)c1` [Example 120, 3-(2,6-Dichloro-phenyl)-1-[6-(3-dimethylamino-phenylamino)-pyrimidin-4-yl]-1-methyl-urea], the inhibition at 10 µM lay in the range of 12 to 100% on Tek, 27 to 100% at FGFR3 (K650E) and 67 to 100% at KDR.

As to `CN(C(=O)Nc1cccc(C(F)(F)F)c1)c1cc(Nc2ccc(F)cc2)ncn1` [Example 121, 1-[6-(4-Fluoro-phenylamino)-pyrimidin-4-yl]-1-methyl-3-(3-trifluoro-methyl-phenyl)-urea], the inhibition at 10 µM fell in the range of 12 to 100% at Tek, 27 to 100% on FGFR3 (K650E) and 67 to 100% on KDR.

`CN(C(=O)Nc1cccc(Cl)c1)c1cc(Nc2ccc(F)cc2)ncn1` [Example 122, 3-(3-Chloro-Phenyl)-1-[6-(4-fluoro-phenylamino)-pyrimidin-4-yl]-1-methyl-urea]: the inhibition at 10 µM at Tek lay in the range of 12 to 100%; on FGFR3 (K650E) it was 27 to 100%; on KDR it was 67 to 100%.

As for `CN(C(=O)Nc1c(Cl)cccc1Cl)c1cc(Nc2ccc(F)cc2)ncn1` [Example 123, 3-(2,6-Dichloro-phenyl)-1-[6-(4-fluoro-phenylamino)-pyrimidin-4-yl]-1-methyl-urea], the inhibition at 10 µM on Tek was in the range of 12 to 100%; at FGFR3 (K650E) it was 27 to 100%; on KDR it was 67 to 100%.

In general, inhibition refers to the relative decrease from the control value, in per cent.
